How the values were obtained:
[1] = system: pancreatic cancer (Panc-1) cell line; assay: Antiproliferative assay, Panc-1; format: cell-based; details: Homo sapiens; Panc-1 pancreatic cancer cells; read-out: Antiproliferative Activity IC50 ± SEM, Panc-1
Description: (§1) 4.2.1.2. Assay for antiproliferative effect
(§2) To explore the antiproliferative potential of compounds propidium iodide fluorescence assay was performed using different cell lines such as Panc-1 (pancreas cancer cell line), MCF-7 (breast cancer cell line), HT-29 (colon cancer cell line) and A-549 (epithelial cancer cell line), respectively. To calculate the total nuclear DNA, a fluorescent dye (propidium iodide, PI) is used which can attach to the DNA, thus offering a quick and precise technique. PI cannot pass through the cell membrane and its signal intensity can be considered as directly proportional to quantity of cellular
(§3) DNA. Cells whose cell membranes are damaged or have changed permeability are counted as dead ones. The assay was performed by seeding the cells of different cell lines at a density of 3000-7500 cells/well (in200μl medium) in culture plates followed by incubation for 24h at 37 °C in humidified 5%CO2/95% air atmospheric conditions.
(§4) The medium was removed; the compounds were added to the plates at 10 μM concentrations (in 0.1% DMSO) in triplicates, followed by incubation for 48h. DMSO (0.1%) was used as control. After incubation, medium was removed followed by the addition of PI (25 μl, 50μg/mL in water/medium) to each well of the plates. At -80 °C, the plates were allowed to freeze for 24 h, followed by thawing at 25 °C. A fluorometer (Polar-Star BMG Tech) was used to record the readings at excitation and emission wavelengths of 530 and 620 nm for each well. The percentage cytotoxicity of compounds was calculated using the following formula:
(§5) Where ATC= Absorbance of treated cells and AC= Absorbance of control. Erlotinib was used as positive control in the assay.

[2] = system: colon cancer (HT-29) cell line; assay: Antiproliferative assay, HT-29; format: cell-based; details: Homo sapiens; HT-29 colon cancer cells; read-out: Antiproliferative Activity IC50 ± SEM, HT-29
Description: as §1, §2, §3, §4, §5

[3] = system: lung cancer (A-549) cell line; assay: Antiproliferative assay, A-549; format: cell-based; details: Homo sapiens, A549; A-549 lung cancer cells; read-out: Antiproliferative Activity IC50 ± SEM, A-549
Description: as §1, §2, §3, §4, §5
(§6) (1 picture or pasted object on this page, not shown here)

[4] = system: four human cancer cell lines (A-549, MCF-7, Panc-1, HT-29); assay: Antiproliferative assay, average over four cancer cell lines (GI50); format: cell-based; details: for IC50: average IC50 (GI50) over A-549, MCF-7, Panc-1, HT-29; for fold less potent than compound 3f (GI50): ratio of GI50 to that of 3f
Description: as §1
To explore the antiproliferative potential of compounds propidium iodide fluorescence assay was performed using different cell lines such as Panc-1 (pancreas cancer cell […]
(epithelial cancer cell line), respectively. To calculate the total nuclear DNA, a fluorescent dye (propidium iodide, PI) is used which can attach to the DNA, thus offering a quick and precise technique. PI cannot pass through the cell membrane and its signal intensity can be considered as directly proportional to quantity of cellular
DNA. Cells whose cell membranes are damaged or have changed permeability are counted as dead ones. The assay was performed by seeding the cells of different cell lines at a density of 3000-7500 cells/well (in200μl medium) in culture plates followed […]
as §4
Where ATC= Absorbance of treated cells and AC= Absorbance of control. […]
was used as positive control in the assay.
as §6

[5] = system: breast cancer (MCF-7) cell line; assay: Antiproliferative assay, MCF-7; format: cell-based; details: Homo sapiens, MCF7; MCF-7 breast cancer cells; read-out: Antiproliferative Activity IC50 ± SEM, MCF-7
Description: as §1, §2, §3, §4, §5

[6] = in vitro; details: human
[7] = molecular target: T1, BRAF^V600E (Mus musculus, UniProt P28028, V585E); assay: BRAF^V600E inhibitory assay; format: biochemical; details: read-out: BRAF^V600E Inhibition IC50 ± SEM
T1 construct: Mouse full-length GST-tagged BRAFV600E (7.5 ng,; GST; purchased Invitrogen PV3849
T1 sequence (P28028 whole entry V585E): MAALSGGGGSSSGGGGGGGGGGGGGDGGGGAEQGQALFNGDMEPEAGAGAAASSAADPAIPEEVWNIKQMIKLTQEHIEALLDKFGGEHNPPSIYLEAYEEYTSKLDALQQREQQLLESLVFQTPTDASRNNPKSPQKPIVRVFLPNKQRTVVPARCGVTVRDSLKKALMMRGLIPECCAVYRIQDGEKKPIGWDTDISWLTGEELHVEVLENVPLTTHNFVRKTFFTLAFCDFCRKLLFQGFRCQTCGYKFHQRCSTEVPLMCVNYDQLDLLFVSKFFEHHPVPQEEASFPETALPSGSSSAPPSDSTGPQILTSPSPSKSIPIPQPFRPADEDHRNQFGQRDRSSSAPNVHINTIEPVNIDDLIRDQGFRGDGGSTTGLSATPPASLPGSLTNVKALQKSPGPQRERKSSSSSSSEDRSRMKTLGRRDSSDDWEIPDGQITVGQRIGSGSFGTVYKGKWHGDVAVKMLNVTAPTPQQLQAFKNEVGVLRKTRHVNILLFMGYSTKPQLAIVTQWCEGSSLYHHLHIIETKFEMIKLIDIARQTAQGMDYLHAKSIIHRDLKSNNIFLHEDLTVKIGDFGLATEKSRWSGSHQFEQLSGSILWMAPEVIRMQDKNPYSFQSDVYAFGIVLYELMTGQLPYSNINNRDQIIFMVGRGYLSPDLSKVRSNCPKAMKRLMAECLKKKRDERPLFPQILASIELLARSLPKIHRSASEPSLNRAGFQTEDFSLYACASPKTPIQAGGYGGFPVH
Description: See Supplementary Information. […]
4.2.3. BRAFV600E inhibitory assay
V600E mutant BRAF kinase assay was performed to investigate the activity of tested compounds against BRAF. Mouse full-length GST-tagged BRAFV600E (7.5 ng, Invitrogen, PV3849) was pre-incubated with drug (1 µL) and assay dilution buffer (4 µL) for 60 min at 25 °C. In assay dilution buffer, a solution (5 µL) containing MgCl2 (30 mM), ATP (200 µM), recombinant human full length (200 ng) […] N-terminal His-tagged MEK1 (Invitrogen) was added to start the assay, subsequent to incubation for 25 min at 25 °C. The assay was stopped using 5X protein denaturing buffer (LDS) solution (5 µL). To further denature the protein, heat (70° C) was applied for 5 min. 4- […]
200 V). 10 µL of each reaction was loaded into the precast plates and electrophoresis was allowed to proceed. After completion of electrophoresis, the front part of the precast gel plate (holding hot ATP) was cut and afterwards cast-off. The dried gel was developed using a phosphor screen. A reaction without active enzyme was used as negative control while that containing no inhibitor served as positive control. […]
4.3. Statistical analysis
Computerized Prism 5 program was used to statistically analyzed data using one-way ANOVA test followed by Tukey’s as post ANOVA for multiple comparison at P ≤.05.
Data were presented as mean ± SEM.

[8] = Cell viability assay (MTT) on normal mammary epithelial cells; details: human, MCF-10A mammary gland epithelial cells
[9] = molecular target: T2, EGFR (Homo sapiens, UniProt P00533); assay: EGFR-TK inhibitory assay; format: biochemical; details: for IC50: read-out: EGFR Inhibition IC50 ± SEM; for fold less potent than erlotinib (EGFR IC50): ratio of EGFR IC50 to that of erlotinib
T2 construct: CD, amino acids 645–1186); His6 (N); made in house; host or cells: Sf-9 insect cells (baculovirus; pBlueBacHis2B / pFASTBacHTc
T2 sequence (P00533 669-1210): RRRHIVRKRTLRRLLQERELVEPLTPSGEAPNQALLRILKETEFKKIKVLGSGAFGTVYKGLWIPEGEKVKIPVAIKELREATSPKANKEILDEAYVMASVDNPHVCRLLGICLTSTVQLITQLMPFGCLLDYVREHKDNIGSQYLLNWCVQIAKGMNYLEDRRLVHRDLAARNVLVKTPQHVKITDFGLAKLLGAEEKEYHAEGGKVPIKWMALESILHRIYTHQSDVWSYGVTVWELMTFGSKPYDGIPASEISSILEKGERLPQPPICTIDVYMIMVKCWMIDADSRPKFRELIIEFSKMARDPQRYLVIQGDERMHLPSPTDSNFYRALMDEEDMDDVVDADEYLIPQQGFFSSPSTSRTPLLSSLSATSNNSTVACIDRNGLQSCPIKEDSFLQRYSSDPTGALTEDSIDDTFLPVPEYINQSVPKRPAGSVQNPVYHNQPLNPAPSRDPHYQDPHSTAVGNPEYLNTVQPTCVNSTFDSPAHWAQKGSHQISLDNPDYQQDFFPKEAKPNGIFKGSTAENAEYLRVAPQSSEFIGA
Description: 4.2.2. EGFR inhibitory assay
Baculoviral expression vectors including pBlueBacHis2B and pFASTBacHTc were […]
5ʹ upstream to the EGFR sequence comprised a sequence that encoded (His)6. Sf-9 cells were infected for 72h for protein expression. The pellets of Sf-9 cells were solubilized in a buffer containing sodium vanadate (100 μM), aprotinin (10 μg/mL), triton (1%), HEPES buffer(50mM), ammonium molybdate (10 μM), benzamidine HCl (16 μg/mL), NaCl (10 mM),leupeptin (10 μg/mL) and pepstatin (10 μg/mL) at 0°C for 20 min at pH 7.4, followed by centrifugation for 20 min. To eliminate the nonspecifically bound material, a Ni-NTA super flow packed column was used to pass through and wash the crude extract supernatant first with 10mM and then with 100 mM imidazole. Histidine-linked proteins were first eluted with 250 and then with 500 mM imidazole subsequent to dialysis against NaCl (50 mM), HEPES (20 mM), glycerol (10%) and 1 μg/mL each of aprotinin, leupeptin and pepstatin for 120 min. The purification was performed either at 4 °C or on ice. To record autophosphorylation level, EGFR kinase assay was carried out on the basis of DELFIA/Time-Resolved Fluorometry. The compounds were first dissolved in DMSO […]
pH 7.4. Each compound (10 μL) was incubated with recombinant enzyme (10 μL, 5 ng for EGFR, 1:80 dilution in 100 mM HEPES) for 10 min at 25 °C, subsequent to the addition of 5X buffer (10 μL, containing 2 mM MnCl2, 100 μM Na3VO4, 20 mM HEPES and 1 mM DTT) and ATP-MgCl2 (20 μL, containing 0.1 mM ATP and 50 mM MgCl2) and incubation for 1h. The negative and positive controls were included in each plate by the incubation of enzyme either with or without ATP-MgCl2. The liquid was removed after incubation and the plates were washed thrice using wash buffer.
Europium-tagged antiphosphotyrosine antibody (75 μL, 400 ng) was added to each well followed by incubation of 1h and then washing of the plates using buffer. The enhancement solution was added to each well and the signal was recorded at excitation […]
The autophosphorylation percentage inhibition by compounds was calculated using the following equation: […]

| SMILES | IC50 [1] | IC50 [2] | IC50 [3] | IC50 ([4]; Homo sapiens) | fold less potent than compound 3f (GI50) [4] | IC50 [5] | viability at 96 h, 50 µM [6] | melting point | IC50 [7] | viability at 96 h, 50 µM [8] | IC50 [4] | IC50 [9] | fold less potent than erlotinib (EGFR IC50) [9] |
| --- | --- | --- | --- | --- | --- | --- | --- | --- | --- | --- | --- | --- | --- |
| Cc1cs/c(=N\Nc2ccc([N+](=O)[O-])cc2[N+](=O)[O-])n1-c1ccccc1 [Compound 3e, (Z)-2-(2-(2,4-Dinitrophenyl)Hydrazineylidene)-4-Methyl-3-Phenyl-2,3-Dihydrothiazole] | 72 ± 7 nM | 72 ± 7 nM | 71 ± 7 nM | 72 nM | 2 fold | 74 ± 7 nM | 87% | – | – | – | – | – | – |
| C=CCn1c(C)cs/c1=N\Nc1ccc([N+](=O)[O-])cc1[N+](=O)[O-] [Compound 3c, (Z)-3-Allyl-2-(2-(2,4-Dinitrophenyl)Hydrazineylidene)-4-Methyl-2,3-Dihydrothiazole] | 54 ± 5 nM | 54 ± 5 nM | 50 ± 5 nM | > 50 nM | – | 56 ± 5 nM | – | 197 to 198 °C | 126 ± 11 nM | 90% | 54 nM | 98 ± 9 nM | – |
| Cc1cs/c(=N\Nc2ccc([N+](=O)[O-])cc2[N+](=O)[O-])n1Cc1ccccc1 [Compound 3a, (Z)-3-Benzyl-2-(2-(2,4-Dinitrophenyl)Hydrazineylidene)-4-Methyl-2,3-Dihydrothiazole] | 48 ± 4 nM | 48 ± 4 nM | 45 ± 4 nM | 48 nM | – | 49 ± 4 nM | – | 215 to 217 °C | 117 ± 10 nM | 89% | – | 93 ± 8 nM | 1.15 fold |
| CCn1c(C)cs/c1=N\Nc1ccc([N+](=O)[O-])cc1[N+](=O)[O-] [Compound 3b, (Z)-2-(2-(2,4-Dinitrophenyl)Hydrazineylidene)-3-Ethyl-4-Methyl-2,3-Dihydrothiazole] | 80 ± 8 nM | 80 ± 8 nM | 78 ± 7 nM | 80 nM | 2.2 fold | 82 ± 8 nM | 91% | – | – | – | – | – | – |
| Cc1cs/c(=N/Nc2ccc([N+](=O)[O-])cc2[N+](=O)[O-])n1C1CCCCC1 [Compound 3d, (Z)-3-Cyclohexyl-2-(2-(2,4-Dinitrophenyl)Hydrazineylidene)-4-Methyl-2,3-Dihydrothi-Azole] | 46 ± 4 nM | 46 ± 4 nM | 43 ± 4 nM | 46 nM | 1.3 fold | 47 ± 4 nM | – | – | 112 ± 10 nM | 92% | – | 91 ± 7 nM | 1.15 fold |
| CCn1c(C)cs/c1=N\NS(=O)(=O)c1ccc(C)cc1 [Compound 3i, (Z)-N′-(3-Ethyl-4-Methylthiazol-2(3H)-Ylidene)-4-Methyl Benzenesulfonohydrazide] | 86 ± 8 nM | 86 ± 8 nM | 84 ± 8 nM | 86 nM | – | 89 ± 8 nM | – | 236 to 238 °C | – | 95% | – | – | – |
| Cc1ccc(S(=O)(=O)N/N=c2\scc(C)n2-c2ccccc2)cc1 [Compound 3g, (Z)-4-Methyl-N′-(4-Methyl-3-Phenylthiazol-2(3H)-Ylidene) Benzenesulfonohydrazide] | 60 ± 6 nM | 58 ± 5 nM | 58 ± 5 nM | 60 nM | – | 63 ± 6 nM | – | 193 to 194 °C | – | 90% | – | – | – |
| C=CCn1c(C)cs/c1=N\NS(=O)(=O)c1ccc(C)cc1 [Compound 3h, (Z)-N′-(3-Allyl-4-Methylthiazol-2(3H)-Ylidene)-4-Methyl Benzenesulfonohydrazide] | 65 ± 6 nM | 65 ± 6 nM | 63 ± 6 nM | 65 nM | – | 68 ± 6 nM | – | 236 to 238 °C | – | 92% | – | – | – |
| C#Cc1cccc(Nc2ncnc3cc(OCCOC)c(OCCOC)cc23)c1 [Erlotinib, reference compound] | 30 ± 3 nM | 30 ± 3 nM | 30 ± 3 nM | – | – | 40 ± 3 nM | – | – | – | – | – | – | – |

— publication PMC10384562, “Synthesis and Structure Determination of Substituted Thiazole Derivatives as EGFR/BRAF^V600E Dual Inhibitors Endowed with Antiproliferative Activity” (Pharmaceuticals, 2023)
